Test results reported in publication PMC3553074 (PLoS ONE, 2013).
≈ marks a conversion by molar mass, not a printed value. Where a name gives a salt, the structure may show the parent alone. Read-outs that look alike come from different tables or passages of the source.

How the values were obtained:
Ft-MglA [1] = target: T1, Ft-MglA (Francisella tularensis, UniProt Q5NFG1); assay: biochemical
Ec-SspA [2] = target: T2, Ec-SspA (Escherichia coli, UniProt P0ACA3); assay: biochemical
T2 construct: His-tagged from pCA24N-sspA (ASKA library clone), expressed in E. coli
T2 sequence (P0ACA3 2-212): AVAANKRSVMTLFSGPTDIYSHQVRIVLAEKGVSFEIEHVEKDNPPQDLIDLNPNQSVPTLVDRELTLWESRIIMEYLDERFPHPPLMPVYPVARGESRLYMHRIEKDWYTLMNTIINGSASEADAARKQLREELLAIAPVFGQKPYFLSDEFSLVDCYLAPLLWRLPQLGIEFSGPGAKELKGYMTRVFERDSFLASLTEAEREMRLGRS

E. coli = assay: microbe, parasite or virus in culture; settings: Escherichia coli, read-out: E. coli MIC (mM)
Ft-MglA [3] = target: T1, Ft-MglA; assay: biochemical; settings: read-out: ΔTm (°C) ^1
Ec-SspA [4] = target: T2, Ec-SspA; assay: biochemical; parameters: differential scanning fluorometry with SYPRO Orange, shift of midpoint transition temperature of purified protein
[5] = target: F. tularensis SCHU S4 SspA fused to the zinc finger DNA binding domain of murine Zif268 (pACTR-sspA-Zif) (F. tularensis SCHU S4); assay: two-hybrid
[6] = read-out: ΔTm (°C) ^1 / Ft-MglA
[7] = read-out: ΔTm (°C) ^1 / Ec-SspA

CC1=C(/C=C/C(C)=C/C=C/C(C)=C/C(=O)O)C(C)(C)CCC1 [Retinoic acid]
ΔTm at 40 µM (Ft-MglA [1]; [6]): 24.5 ± 3.9 °C
ΔTm at 40 µM (Ec-SspA [2]; [7]): 23.3 ± 3.2 °C
MIC (E. coli): 0.5 mM (≈ 150 µg/mL)

COc1ccc2cc(CCC(C)=O)ccc2c1 [Nabumetone]
ΔTm at 40 µM (Ft-MglA [1]; read-out: ΔTm (°C) ^1): 13.8 ± 0.1 °C
MIC (E. coli): 1 mM (≈ 228 µg/mL)

C[C@H]1[C@H](C)CC[C@]2(C(=O)O)CC[C@]3(C)C(=CC[C@@H]4[C@@]5(C)CC[C@H](O)C(C)(C)[C@@H]5CC[C@]43C)[C@H]12 [Ursolic acid]
ΔTm at 40 µM (Ft-MglA [1]; read-out: ΔTm (°C) ^1): 16.3 ± 3.2 °C
MIC (E. coli): 1 mM (≈ 457 µg/mL)

Cn1c(=O)c2nc[nH]c2n(C)c1=O [Theophylline monohydrate]
MIC (E. coli): 0.1 mM
ΔTm at 40 µM (Ft-MglA [3]): 2.3 ± 0.1 °C

CCCOc1ccc(C(=O)OCCN(CC)CC)cc1N [Proparacaine hydrochloride]
ΔTm at 40 µM (Ft-MglA [1]; [6]): 24.5 ± 4.4 °C
ΔTm at 40 µM (Ec-SspA [4]; [7]): 27.9 ± 4.3 °C
MIC (E. coli): 0.5 mM

O=C(CCCN1CCC(O)(c2ccc(Cl)cc2)CC1)c1ccc(F)cc1 [Haloperidol]
MIC (E. coli): 0.1 mM (≈ 37.6 µg/mL)

CC1CCc2cc(F)cc3c(=O)c(C(=O)O)cn1c23 (centres unmarked) [Flumequine]
ΔTm at 40 µM (Ft-MglA [1]; read-out: ΔTm (°C) ^1): 17.9 ± 2.4 °C
MIC (E. coli): 0.1 mM (≈ 26.1 µg/mL)

Cc1c(N(C)CS(=O)(=O)O)c(=O)n(-c2ccccc2)n1C [Dipyrone]
ΔTm at 40 µM (Ec-SspA [4]; read-out: ΔTm (°C) ^1): 8.9 ± 1.5 °C
MIC (E. coli): 1 mM (≈ 311 µg/mL)

CCN(CC)C(=O)N1CCN(C)CC1 [Diethylcarbamazine citrate]
MIC (E. coli): 1 mM
ΔTm at 40 µM (Ft-MglA [3]): 2.1 ± 0.1 °C

COC(=O)C1=CCCN(C)C1 [Arecoline hydrobromide]
MIC (E. coli): 0.1 mM
ΔTm at 40 µM (Ft-MglA [3]): 2.8 ± 0.1 °C

CCc1oc2ccccc2c1C(=O)c1cc(Br)c(O)c(Br)c1 [Benzbromarone]
ΔTm at 40 µM (Ec-SspA [2]; read-out: ΔTm (°C) ^1): 30 ± 1.6 °C
MIC (E. coli): 1 mM (≈ 424 µg/mL)

C[C@H](CS)C(=O)N1CCC[C@H]1C(=O)O [Captopril]
ΔTm at 40 µM (Ec-SspA [4]; read-out: ΔTm (°C) ^1): 9.2 ± 1.9 °C
MIC (E. coli): 1 mM (≈ 217 µg/mL)

O=C(O)c1cc2ccccc2c(Cc2c(O)c(C(=O)O)cc3ccccc23)c1O [Pamoic acid]
MIC (E. coli): 0.25 mM (≈ 97.1 µg/mL)

Cc1c(Cl)cccc1Nc1ccccc1C(=O)O [Tolfenamic acid]
ΔTm at 40 µM (Ec-SspA [4]; read-out: ΔTm (°C) ^1): 11.6 ± 2.7 °C
MIC (E. coli): 1 mM (≈ 262 µg/mL)

F. tularensis SCHU S4 MglA fused to the ω subunit of E. coli RNA polymerase (pBR-mglA-ω) (natural protein)
decrease of β-galactosidase activity (%) with arecoline hydrobromide [5]: 7.8%
decrease of β-galactosidase activity (%) with benzbromarone [5]: 5.8%
decrease of β-galactosidase activity (%) with benzethonium chloride [5]: 18.9%
decrease of β-galactosidase activity (%) with captopril [5]: 16.2%
decrease of β-galactosidase activity (%) with diethylcarbamazine citrate [5]: 19.3%
decrease of β-galactosidase activity (%) with dipyrone [5]: 10.3%
decrease of β-galactosidase activity (%) with flumequine [5]: 12%
decrease of β-galactosidase activity (%) with haloperidol [5]: 18%
decrease of β-galactosidase activity (%) with meclofenamic acid [5]: 13.2%
decrease of β-galactosidase activity (%) with nabumetone [5]: 17.1%
decrease of β-galactosidase activity (%) with pamoic acid [5]: 15.5%
decrease of β-galactosidase activity (%) with proparacaine hydrochloride [5]: 9.8%
decrease of β-galactosidase activity (%) with quinacrine dihydrochloride [5]: 61%
decrease of β-galactosidase activity (%) with retinoic acid [5]: 31%
decrease of β-galactosidase activity (%) with theophylline monohydrate [5]: 6.5%
decrease of β-galactosidase activity (%) with tolfenamic acid [5]: 7.7%
decrease of β-galactosidase activity (%) with ursolic acid [5]: 16.5%

Cc1ccc(Cl)c(Nc2ccccc2C(=O)O)c1Cl [Meclofenamic acid]
ΔTm at 40 µM (Ec-SspA [2]; read-out: ΔTm (°C) ^1): 22.9 ± 4.1 °C
MIC (E. coli): 1 mM (≈ 296 µg/mL)

CCN(CC)CCCC(C)Nc1c2ccc(Cl)cc2nc2ccc(OC)cc12 (centres unmarked) [quinacrine]
ΔTm at 40 µM (Ft-MglA [1]; [6]): 2.1 ± 0.9 °C
ΔTm at 40 µM (Ec-SspA [4]; [7]): 15.2 ± 1.7 °C
MIC (E. coli): 0.2 mM (≈ 80 µg/mL)
